For assay [1], the system named is CT26R100 murine colon cancer cell line. Description: Growth inhibition by MTT staining, CT26R100. Type of assay: cell-based, Mouse.
Assay [2] relates to DU145 prostate cancer cells. Description: Growth inhibition by MTT staining, DU145. The format is cell-based. The following applies: DU-145, 96 h, Human tumor cells, treated four days. The method, then:
(§1) Growth inhibitory effects of PCNA-I1 and PCNA-I2 were assessed in human cancer cell lines, mouse cancer cell lines, immortalized mouse cell lines, and human primary cell lines. Specifically, growth inhibitory effects of PCNA-I1 and PCNA-I2 were assessed using MTT staining in the following cells lines: 1) human cancer cell lines including LNCaP (androgen receptor […]), 22Rv1, DU-145, LAPC-4, and PC-3 (androgen receptor […]) prostate cancer cells; MCF-7 and T47D breast cancer cells; A375 and MDA-MB435 melanoma cells; 2) mouse cancer cell lines including TRAMP-C2RE3 prostate cancer cells, B16 and K1735 melanoma cells, UV2237 fibrosarcoma cells, and CT-26 colon cancer cells; 3) immortalized mouse lung cell lines and mouse endothelial cell lines; and 4) primary human cell lines including umbilical endothelial cells (HUVEC, PromoCell, Heidelberg, Germany), primary bone marrow mesenchymal stem cells (HuMSC, PromoCell), primary human mammary epithelial cells (HuBrEC, Lonza, Walkersville, Md.), primary human prostate epithelial cells (HuPrEC, Lonza), and primary mouse spleen lymphocytes (isolated in this laboratory), and primary mouse bone marrow stromal cells (isolated in this laboratory). […]
(§2) IC50 values were derived from growth inhibition curves. […] Inhibition of cell growth was calculated using the formula: growth inhibition (%)=(1−A570 of treated/A570 of control)×100. […]

The target in assay [3] is T1, p21Waf1/Cip1 and PCNA (Homo sapiens, UniProt P12004).
T1 construct: endogenous in cells; host or cells: PC-3, LNCaP
T1 sequence (P12004 whole entry): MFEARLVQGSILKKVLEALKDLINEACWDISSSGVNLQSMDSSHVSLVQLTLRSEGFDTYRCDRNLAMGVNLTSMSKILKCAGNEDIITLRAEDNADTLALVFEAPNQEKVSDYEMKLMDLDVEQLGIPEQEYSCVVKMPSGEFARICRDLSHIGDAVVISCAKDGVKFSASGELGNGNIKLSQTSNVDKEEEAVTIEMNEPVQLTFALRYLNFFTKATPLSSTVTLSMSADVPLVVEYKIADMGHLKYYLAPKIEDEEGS
Description: Association of p21Waf1/Cip1 to PCNA (immunoprecipitation). The format is cell-based. The following applies: Pc-3 and LNCaP, 0.5 μM, 8 H; FIG. 13. The method, then: Chromatin-associated trimeric PCNA executes its function through numerous partner proteins, including p21Waf1/Cip1. To validate that treatment with PCNA-I1 reduces function of PCNA, the binding of p21Waf1/Cip1 to PCNA was investigated. Specifically, Pc-3 and LNCaP cells were treated with PCNA-I1 (0.5 μM) for 8 H and lysed in buffer B as previously discussed. Chromatin-associated protein was extracted in buffer D containing 0.42 M NaCl. The chromatin-associated protein was precipitated with the antibody to PCNA, and was resolved in SDS-PAGE, and probed with antibodies to p21Waf1/Cip1 and PCNA.

The test system of assay [4] is primary human prostate epithelial cells. Description: Growth inhibition, prostate epithelial cells. Type of assay: cell-based. The following applies: Epithelial cell, normal cells. Here is the method:
as §1, §2

In assay [5] the test system is 22Rv1 cells. Description: 22Rv1 tumor model in male nude mice. The format is in vivo. The following applies: 10 mg/kg i.p., three times/week. Here is the method: The therapeutic effects of PCNA-I1 were evaluated in LNCaP cells and 22Rv1 tumor models. LNCaP or 22Rv1 cells (1-2×10^6 cells in gelfoam) were implanted into the subcutis of male nude mice. From four to five days later, tumor-bearing mice were intraperitoneally injected with 10 mg/kg or 50 mg/kg of PCNA-I1. The therapy was continued at three times/week until termination of experiments. Control and treated tumor-bearing mice were monitored daily. Mouse body weight was recorded for toxicity evaluation twice a week and tumor size was measured using calipers twice a week. The experiments were terminated when mice in control groups were moribund. Additionally, to further evaluate potential liver and renal toxicity of PCNA-I1, the blood of tumor-bearing mice were sampled after the treatment with PCNA-I1 for 8 weeks.

Assay [6] has as its system B16 melanoma cells. The assay is described as follows: Growth inhibition by MTT staining, B16. Type of assay: cell-based. The following applies: B16, 96 h, Mouse, treated four days. Here is the method: as §1, §2
In assay [7] the test system is CT26-R500 murine colon cancer cell line. The assay is described as follows: Growth inhibition by MTT staining, CT26-R500. Type of assay: cell-based. The following applies: Mouse tumor cells; cell line not given; read-out: IC50 Values, cell line cell blank (third row below UV2237). The method, then:
as §1, §2

Assay [8] concerns MDA-MB435 melanoma cells. Description: Growth inhibition by MTT staining, MDA-MB435. Type of assay: cell-based. The following applies: MDA-MB-435, 96 h, Human, treated four days. The method, then: as §1, §2
The subject of assay [9] is PC-3 prostate cancer cells. The assay is described as follows: Growth inhibition by MTT staining, PC-3. Type of assay: cell-based, Human. Here is the method:
Growth inhibitory effects of PCNA-I1 and PCNA-I2 were assessed in human cancer cell lines, mouse cancer cell lines, immortalized mouse cell lines, and human primary cell lines. Specifically, growth inhibitory effects of PCNA-I1 and PCNA-I2 were assessed using MTT staining in the following cells lines: 1) human cancer cell lines including LNCaP (androgen receptor […]), 22Rv1, DU-145, LAPC-4, and PC-3 (androgen receptor […]) prostate cancer cells; MCF-7 and T47D breast cancer cells; A375 and MDA-MB435 melanoma cells; 2) mouse cancer cell lines including TRAMP-C2RE3 prostate cancer cells, B16 and K1735 melanoma cells, UV2237 fibrosarcoma cells, and CT-26 colon cancer cells; 3) immortalized mouse lung cell lines and mouse endothelial cell lines; and 4) primary human cell lines including umbilical endothelial cells (HUVEC, PromoCell, Heidelberg, Germany), primary bone marrow mesenchymal stem cells (HuMSC, PromoCell), primary human mammary epithelial cells (HuBrEC, Lonza, Walkersville, Md.), primary human prostate epithelial cells (HuPrEC, Lonza), and primary mouse spleen lymphocytes (isolated in this laboratory), and primary mouse bone marrow stromal cells (isolated in this laboratory). PCNA-I1 and PCNA-I2 were either provided by the University of Cincinnati Drug Discovery Center (UC-DDC, Cincinnati, Ohio) or were purchased from Chembridge Co (San Diego, Calif.), ChemDiv (San Diego, Calif.), and/or Sigma-Aldrich (St Louis, Mo.).
Growth inhibitory effects of the compounds were assessed by MTT staining as described previously by Dong et al. in In Vitro Model for Intrinsic Drug Resistance: Effects of Protein Kinase C Activators on the Chemosensitivity of Cultured Human Colon Cancer Cells; Mol. Pharmacol. 1991; 39: 563-9. Briefly, cells were cultured and treated in their respective media. Cells were plated into 96-well plates at 1000 to 5000 cells/well. After an overnight incubation, the cells were treated for four days with various concentrations (up to 10 μM) of PCNA-I1 or PCNA-I2. The live cells were stained with MTT and cells in exponential growth phase were harvested by a one to three minute treatment with a 0.25% trypsin-0.02% EDTA solution. Flasks were tapped to detach the cells, RPMI 1640-10% FBS was added, and the cell suspensions were gently agitated to produce single-cell suspensions. The cell suspensions were washed and resuspended in medium with supplements specified for different cells. Only suspensions of single cells with a viability exceeding 95% (ascertained by trypan blue exclusion) were used.
IC50 values were derived from growth inhibition curves. Data for tumor cells are a mean of five to seven experiments. Data for primary cells are a mean of three experiments. […] Inhibition of cell growth was calculated using the formula: growth inhibition (%)=(1−A570 of treated/A570 of control)×100. IC50 (the concentration that inhibited cell growth by 50%) values were also determined. For evaluation of lymphocyte growth in suspension, an Alamar blue assay was performed, wherein freshly prepared mouse spleen lymphocytes were stimulated for 72 H with 2 ug/mL concanavalin A (Sigma Chemicals, St. Louis, […].). During the last 24 H, 20 μl/well of Alamar blue (Invitrogen, Carlsbad, Calif.) was added. The fluorescence intensity was measured at 530/580 (excitation/emission) in the FLUOstar Omega microplate reader (BMG LABTECH, Cary, N.C.).
Growth inhibitory effects of PCNA-I3, PCNA-I4, PCNA-I6, PCNA-I7, PCNA-I8, PCNA-I9 and PCNA-I10 were assessed in human prostate cancer cell lines. Specifically, growth inhibitory effects of PCNA-I3, PCNA-I4, PCNA-I6, PCNA-I7, PCNA-I8, PCNA-I9 and PCNA-I10 were assessed using MTT staining in LNCaP and PC-3 cells. […]

Entries after “also recorded” stand apart in the source; their conditions may differ. Where two headings read alike, the source gives them in different places.

A word on the IC50: it is the concentration needed to halve the response being measured. Turning to `Cc1ccsc1C(=O)N/N=C/c1ccc2ccccc2c1O` [PCNA-I1], the 50% inhibitory concentration (IC50) in assay [1] (Mouse tumor cells, cell line not given, read-out: IC50 Values, cell line cell blank (second row below UV2237)) came out at 80 nM; in [2] it was 160 nM; in assay [4] it was 2000 nM; in [6] it was 350 nM; in assay [7] it was 70 nM; in [8], 290 nM. The IC50 was 240 nM in assay [9] (96 h, Table II, Human tumor cells, MTT, treated four days, mean of five to seven experiments, read-out: IC50 Values, PC-3) and 250 nM in assay [9] (Homo sapiens, FIG. 2(C), read-out: IC50, PC-3). Also, in [1] (cells overexpress P-glycoprotein, MDR phenotype), the “Sensitivity of multidrug resistant CT26R100 and CT26-R500 cells relative to parental CT26 cells” value is “even more sensitive to PCNA-I1 than the parental CT26 cells; also recorded: as susceptible as the parental CT-26 cells”. Also, the “Level of chromatin-associated PCNA and p21Waf1/Cip1” value in [3] was “reduced the level of PCNA and p21Waf1/Cip1”. Besides, the “Tumor growth, 22Rv1 model” value in assay [5] is given as “retarded tumor growth”.

(Values after patent US9895363B2, “Methods for modulating function of proliferating cell nuclear antigen (PCNA) and treating cancer with PCNA-targeting compounds” (University of Cincinnati, priority 2010, dated 2018).)
